Patent US6057335A, “Pyrazole derivatives” (Banyu Pharmaceutical Co., Ltd., priority 1996, dated 2000)

Target: T1, human NPY Y5 receptor (Homo sapiens, UniProt Q15761)
T1 construct: expressed in transfected cells; host or cells: COS-7, CHO and LM(tk-)
T1 sequence (Q15761 1-445): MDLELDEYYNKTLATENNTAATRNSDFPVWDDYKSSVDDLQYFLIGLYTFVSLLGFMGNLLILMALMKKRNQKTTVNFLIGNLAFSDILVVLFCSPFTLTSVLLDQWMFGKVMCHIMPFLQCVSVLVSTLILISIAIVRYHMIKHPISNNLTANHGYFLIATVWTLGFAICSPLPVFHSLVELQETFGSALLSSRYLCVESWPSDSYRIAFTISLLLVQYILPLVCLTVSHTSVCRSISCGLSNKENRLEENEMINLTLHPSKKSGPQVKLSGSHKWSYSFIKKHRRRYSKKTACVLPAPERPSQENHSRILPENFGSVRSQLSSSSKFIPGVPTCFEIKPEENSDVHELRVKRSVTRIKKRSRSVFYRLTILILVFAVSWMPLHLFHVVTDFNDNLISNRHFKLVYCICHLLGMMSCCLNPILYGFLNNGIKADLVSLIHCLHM
Experiment: test of inhibition of NPY binding ([125I] peptide YY binding to NPY Y5 receptor)
Conditions: [125I] peptide YY 20,000 cpm, 25° C., 2 hours, pH 7.4, membrane preparations of cells expressing NPY Y5 receptor; read-out: IC50 value (concentration needed to inhibit 50% of the specific binding to the peptide YY)
Text: Pharmacological Test Example 1 (test of inhibition of NPY binding)
cDNA Sequence encoding a human NPY Y5 receptor [International Publication WO 96/16542] was cloned into expression vectors pcDNA3, pRc/RSV (manufactured by Invitrogen) and pCI-neo (manufactured by Promega). Using the cationic lipid method [see Proceedings of the National Academy of Science of the United States of America, vol.84, p.7413 (1987)], host cells COS-7, CHO and LM(tk-) (American Type Culture Collection) were transfected with the thus prepared expression vectors to obtain cells in which the NPY Y5 receptor had been expressed.
Each of the membrane preparations thus prepared from the cells in which the NPY Y5 receptor had been expressed was incubated together with each compound to be tested and 20,000 cpm of [^125 I] peptide YY (manufactured by Amersham) at 25° C. for 2 hours in an assay buffer solution (25 mM HEPES buffer, pH 7.4, containing 10 mM magnesium chloride, 1 mM phenylmethylsulfonyl fluoride and 0.1% bacitracin) and then, the reaction mixture was filtered through a glass filter GF/C. After washing with 50 mM Tris buffer, pH 7.4, containing 0.3% BSA, radioactivity on the glass filter was measured using a gamma counter. […]

IC50: 2.5 nM
SMILES: COc1ccc(-c2cc(NC(=O)C3Cc4cc5ccccc5cc4C3)n[nH]2)cc1OC [Example 30, 3-(2,3-dibydro-1H-cyclopenta[b]naphthalen-2-yl)carbonylamino-5-(3,4-dimethoxyphenyl)pyrazole]
